Source: patent US12202835B2, “Substituted aromatic ring-linked dioxinoquinazolines and dioxinoquinolines as kinase inhibitors” (BEIJING SCITECH-MQ PHARMACEUTICALS LIMITED, priority 2018, dated 2025)

Assays:
[1] = tested on: Ba/F3-AXL cells; experiment: Assay for inhibiting the proliferation of Ba/F3-AXL cells (CCK-8); assay type: cell-based; conditions: 72 hours of incubation, medium with 100 ng/mL hGas6, CCK-8
Experimental: The values were then imported into Graphpad Prism 5 software for curve fitting, and IC50 was calculated.

[2] = target: VEGFR-2 kinase (Homo sapiens (Human), UniProt P35968); experiment: Assay of small molecular compounds for inhibiting the activity of VEGFR-2 kinase (LANCE TR-FRET); assay type: biochemical; conditions: read-out: VEGFR2 IC50
Chain of VEGFR-2 kinase (P35968 20-1356): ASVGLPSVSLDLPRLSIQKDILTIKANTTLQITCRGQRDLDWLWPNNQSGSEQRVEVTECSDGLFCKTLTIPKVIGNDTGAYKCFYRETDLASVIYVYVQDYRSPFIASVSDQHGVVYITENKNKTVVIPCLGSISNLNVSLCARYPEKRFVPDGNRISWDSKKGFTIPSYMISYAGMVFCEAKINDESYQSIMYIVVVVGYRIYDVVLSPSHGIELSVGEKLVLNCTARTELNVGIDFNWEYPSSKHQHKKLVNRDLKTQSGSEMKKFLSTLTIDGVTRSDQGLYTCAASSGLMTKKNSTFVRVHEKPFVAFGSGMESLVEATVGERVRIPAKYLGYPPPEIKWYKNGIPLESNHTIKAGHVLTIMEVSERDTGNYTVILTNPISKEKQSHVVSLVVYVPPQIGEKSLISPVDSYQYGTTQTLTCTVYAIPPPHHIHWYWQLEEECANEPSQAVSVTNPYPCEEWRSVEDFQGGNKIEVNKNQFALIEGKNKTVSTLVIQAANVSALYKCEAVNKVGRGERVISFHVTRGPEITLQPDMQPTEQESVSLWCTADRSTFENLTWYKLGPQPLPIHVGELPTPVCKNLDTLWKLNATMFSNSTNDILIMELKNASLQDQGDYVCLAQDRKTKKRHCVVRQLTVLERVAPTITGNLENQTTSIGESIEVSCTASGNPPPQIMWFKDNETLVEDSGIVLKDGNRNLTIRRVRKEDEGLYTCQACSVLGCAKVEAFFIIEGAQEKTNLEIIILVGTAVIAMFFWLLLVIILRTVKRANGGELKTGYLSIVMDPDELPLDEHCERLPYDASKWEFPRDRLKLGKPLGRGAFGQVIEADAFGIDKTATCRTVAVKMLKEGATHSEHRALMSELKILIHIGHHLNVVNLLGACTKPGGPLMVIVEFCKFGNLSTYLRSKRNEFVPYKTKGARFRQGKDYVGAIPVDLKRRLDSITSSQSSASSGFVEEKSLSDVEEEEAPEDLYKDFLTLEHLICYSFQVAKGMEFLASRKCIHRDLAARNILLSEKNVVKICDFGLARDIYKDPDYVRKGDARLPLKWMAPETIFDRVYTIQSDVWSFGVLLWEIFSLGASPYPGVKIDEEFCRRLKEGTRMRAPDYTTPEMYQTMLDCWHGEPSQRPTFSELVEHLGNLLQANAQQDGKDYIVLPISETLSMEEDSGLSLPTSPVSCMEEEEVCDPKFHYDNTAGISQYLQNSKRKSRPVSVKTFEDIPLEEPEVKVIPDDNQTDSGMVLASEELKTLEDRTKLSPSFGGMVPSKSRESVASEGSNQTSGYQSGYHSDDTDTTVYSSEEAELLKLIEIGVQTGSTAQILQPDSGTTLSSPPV
Method in brief: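 LANCE TR-FRET with human VEGFR-2 (2× stock 0.5 nM) preincubated 30 min with compound (final 2500 to 0.042 nM, 11-point 3-fold), then ULight-JAK-1 (Tyr1023) peptide/ATP added (4× stocks 200 nM/40 μM). Reaction 60 min room temperature, 4% DMSO; IC50 from inhibition-rate curve.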

[3] = target: MER kinase (Homo sapiens (Human), UniProt Q12866); experiment: Assay of small molecular compounds for inhibiting the activity of MER kinase (LANCE TR-FRET); assay type: biochemical
Chain of MER kinase (Q12866 21-999): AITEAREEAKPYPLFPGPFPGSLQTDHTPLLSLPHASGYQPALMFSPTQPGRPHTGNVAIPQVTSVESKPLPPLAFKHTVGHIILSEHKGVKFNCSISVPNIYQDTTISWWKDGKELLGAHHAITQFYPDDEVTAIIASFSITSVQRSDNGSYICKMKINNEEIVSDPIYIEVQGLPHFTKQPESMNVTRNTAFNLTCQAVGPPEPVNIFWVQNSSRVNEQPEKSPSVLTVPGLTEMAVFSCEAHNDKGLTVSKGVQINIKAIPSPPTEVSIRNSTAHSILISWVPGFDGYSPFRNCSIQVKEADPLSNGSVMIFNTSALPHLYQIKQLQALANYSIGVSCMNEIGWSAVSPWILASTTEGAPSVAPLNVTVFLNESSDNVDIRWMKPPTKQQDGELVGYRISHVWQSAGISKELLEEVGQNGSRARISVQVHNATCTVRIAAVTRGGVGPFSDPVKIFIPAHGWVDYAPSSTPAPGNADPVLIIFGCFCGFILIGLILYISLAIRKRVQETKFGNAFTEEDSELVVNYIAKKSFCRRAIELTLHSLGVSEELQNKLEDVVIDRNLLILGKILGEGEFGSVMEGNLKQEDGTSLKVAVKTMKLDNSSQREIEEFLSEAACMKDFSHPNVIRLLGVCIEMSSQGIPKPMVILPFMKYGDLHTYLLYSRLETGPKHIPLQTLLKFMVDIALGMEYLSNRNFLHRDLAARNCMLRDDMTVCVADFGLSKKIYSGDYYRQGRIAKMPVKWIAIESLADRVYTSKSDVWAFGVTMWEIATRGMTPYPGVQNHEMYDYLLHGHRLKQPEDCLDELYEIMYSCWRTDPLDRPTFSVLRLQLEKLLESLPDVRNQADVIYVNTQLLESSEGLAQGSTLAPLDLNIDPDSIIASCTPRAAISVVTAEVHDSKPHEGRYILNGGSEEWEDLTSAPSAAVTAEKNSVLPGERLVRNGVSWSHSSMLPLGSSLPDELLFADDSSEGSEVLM
Method in brief: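 MER kinase preincubated 5 min at RT with compound (11 points, 0.042-2500 nM final), then ULight-poly GT and ATP added (4× stocks 200 nM and 20 μM) for 60 min at RT, 1% DMSO. Phosphorylation detected by LANCE TR-FRET; IC50 from % inhibition versus controls.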

| IC50 [1] | IC50 [2] | IC50 [3] | Structure (SMILES) |
| --- | --- | --- | --- |
| < 50 nM | ≤ 50 nM | ≤ 50 nM | O=C(Nc1ccc(Oc2ncnc3cc(OCCCN4CCOCC4)c4c(c23)OCCO4)c(F)c1)c1cccn(-c2ccc(F)cc2)c1=O [Example 4, N-(3-fluoro-4-((5-(3-morpholinopropoxy)-2,3-dihydro-[1,4]dioxino[2,3-f]quinazolin-10-yl)oxy)phenyl)-1-(4-fluorophenyl)-2-oxo-1,2-dihydropyridine-3-carboxamide] |
| < 50 nM | 50 to 500 nM | ≤ 50 nM | COc1ccn(-c2ccc(F)cc2)c(=O)c1C(=O)Nc1ccc(Oc2ncnc3cc(OCCCN4CCOCC4)c4c(c23)OCCO4)c(F)c1 [Example 5, N-(3-fluoro-4-((5-(3-morpholinopropoxy)-2,3-dihydro-[1,4]dioxino[2,3-f]quinazolin-10-yl)oxy)phenyl)-1-(4-fluorophenyl)-4-methoxy-2-oxo-1,2-dihydropyridine-3-carboxamide] |
| < 50 nM | 500 to 5000 nM | ≤ 50 nM | COc1cc2nccc(Oc3ccc(NC(=O)c4cn(C)c(=O)n(-c5ccc(F)cc5)c4=O)cc3F)c2c2c1OCCO2 [Example 13, N-(3-fluoro-4-((5-methoxy-2,3-dihydro-[1,4]dioxino[2,3-f]quinolin-10-yl)oxy)phenyl)-3-(4-fluorophenyl)-1-methyl-2,4-dioxo-1,2,3,4-tetrahydropyrimidine-5-carboxamide] |
| < 50 nM | 50 to 500 nM | ≤ 50 nM | Cn1cc(C(=O)Nc2ccc(Oc3ccnc4cc(OCCCN5CCOCC5)c5c(c34)OCCO5)c(F)c2)c(=O)n(-c2ccc(F)cc2)c1=O [Example 15, N-(3-fluoro-4-((5-(3-morpholinopropoxy)-2,3-dihydro-[1,4]dioxino[2,3-f]quinolin-10-yl)oxy)phenyl)-3-(4-fluorophenyl)-1-methyl-2,4-dioxo-1,2,3,4-tetrahydropyrimidine-5-carboxamide] |
| < 50 nM |  | ≤ 50 nM | CC(C)n1cc(C(=O)Nc2ccc(Oc3ccnc4cc(OCCCN5CCOCC5)c5c(c34)OCCO5)c(F)c2)c(=O)n(-c2ccc(F)cc2)c1=O [Example 16, N-(3-fluoro-4-((5-(3-morpholinopropoxy)-2,3-dihydro-[1,4]dioxino[2,3-f]quinolin-10-yl)oxy)phenyl)-3-(4-fluorophenyl)-1-isopropyl-2,4-dioxo-1,2,3,4-tetrahydropyrimidine-5-carboxamide] |
| < 50 nM | ≤ 50 nM | ≤ 50 nM | COc1cc2nccc(Oc3ccc(NC(=O)c4cccn(-c5ccc(F)cc5)c4=O)cc3F)c2c2c1OCCO2 [Example 17, N-(3-fluoro-4-((5-methoxy-2,3-dihydro-[1,4]dioxino[2,3-f]quinolin-10-yl)oxy)phenyl)-1-(4-fluorophenyl)-2-oxo-1,2-dihydropyridine-3-carboxamide] |
| < 50 nM | ≤ 50 nM | ≤ 50 nM | COc1cc2nccc(Oc3ccc(NC(=O)c4c(OC)ccn(-c5ccc(F)cc5)c4=O)cc3F)c2c2c1OCCO2 [Example 18, N-(3-fluoro-4-((5-methoxy-2,3-dihydro-[1,4]dioxino[2,3-f]quinolin-10-yl)oxy)phenyl)-1-(4-fluorophenyl)-4-methoxy-2-oxo-1,2-dihydropyridine-3-carboxamide] |
| < 50 nM | ≤ 50 nM | ≤ 50 nM | CCOc1ccn(-c2ccc(F)cc2)c(=O)c1C(=O)Nc1ccc(Oc2ccnc3cc(OC)c4c(c23)OCCO4)c(F)c1 [Example 19, N-(3-fluoro-4-((5-methoxy-2,3-dihydro-[1,4]dioxino[2,3-f]quinolin-10-yl)oxy)phenyl)-1-(4-fluorophenyl)-4-ethoxy-2-oxo-1,2-dihydropyridine-3-carboxamide] |
| < 50 nM | ≤ 50 nM | ≤ 50 nM | COc1ccn(-c2ccc(F)cc2)c(=O)c1C(=O)Nc1ccc(Oc2ccnc3cc(OCCCN4CCOCC4)c4c(c23)OCCO4)c(F)c1 [Example 21, N-(3-fluoro-4-((5-(3-morpholinopropoxy)-2,3-dihydro-[1,4]dioxino[2,3-f]quinolin-10-yl)oxy)phenyl)-1-(4-fluorophenyl)-4-methoxy-2-oxo-1,2-dihydropyridine-3-carboxamide] |
|  | ≤ 50 nM | ≤ 50 nM | CCOc1ccn(-c2ccc(F)cc2)c(=O)c1C(=O)Nc1ccc(Oc2ccnc3cc(OCCCN4CCCCC4)c4c(c23)OCCO4)cc1Cl [Example 138, N-(2-chloro-4-((5-((3-piperidin-1-yl)propoxy)-2,3-dihydro-[1,4]dioxino[2,3-f]quinolin-10-yl)oxy)phenyl)-1-(4-fluorophenyl)-4-ethoxy-2-oxo-1,2-dihydropyridine-3-carboxamide] |
|  | 50 to 500 nM | ≤ 50 nM | CC(C)(O)COc1cc2nccc(Oc3ccc(NC(=O)c4cccn(-c5ccc(F)cc5)c4=O)c(Cl)c3)c2c2c1OCCO2 [Example 139, N-(2-chloro-4-((5-(2-hydroxy-2-methylpropoxy)-2,3-dihydro-[1,4]dioxino[2,3-f]quinolin-10-yl)oxy)phenyl)-1-(4-fluorophenyl)-2-oxo-1,2-dihydropyridine-3-carboxamide] |
|  | 500 to 5000 nM | ≤ 50 nM | COc1ccn(-c2ccc(F)cc2)c(=O)c1C(=O)Nc1ccc(Oc2ccnc3cc(OCC(C)(C)O)c4c(c23)OCCO4)cc1Cl [Example 140, N-(2-chloro-4-((5-(2-hydroxy-2-methylpropoxy)-2,3-dihydro-[1,4]dioxino[2,3-f]quinolin-10-yl)oxy)phenyl)-1-(4-fluorophenyl)-4-methoxy-2-oxo-1,2-dihydropyridine-3-carboxamide] |
| < 50 nM |  | 50 to 500 nM | Cn1cc(C(=O)Nc2ccc(Oc3ccnc4cc(OCC(C)(C)O)c5c(c34)OCCO5)cc2Cl)c(=O)n(-c2ccc(F)cc2)c1=O [Example 141, N-(2-chloro-4-((5-(2-hydroxy-2-methylpropoxy)-2,3-dihydro-[1,4]dioxino[2,3-f]quinolin-10-yl)oxy)phenyl)-3-(4-fluorophenyl)-1-methyl-2,4-dioxo-1,2,3,4-tetrahydropyrimidine-5-carboxamide] |
|  | ≤ 50 nM | ≤ 50 nM | O=C(Nc1ccc(Oc2ccnc3cc(OCCCN4CCOCC4)c4c(c23)OCCO4)cc1Cl)c1cccn(-c2ccc(F)cc2)c1=O [Example 143, N-(2-chloro-4-((5-(3-morpholinopropoxy)-2,3-dihydro-[1,4]dioxino[2,3-f]quinolin-10-yl)oxy)phenyl)-1-(4-fluorophenyl)-2-oxo-1,2-dihydropyridine-3-carboxamide] |
|  | 500 to 5000 nM | 50 to 500 nM | Cn1cc(C(=O)Nc2ccc(Oc3ccnc4ccc5c(c34)OCCO5)cc2F)c(=O)n(-c2ccc(F)cc2)c1=O [Example 162, N-(4-((2,3-dihydro-[1,4]dioxino[2,3-f]quinolin-10-yl)oxy)-2-fluorophenyl)-3-(4-fluorophenyl)-1-methyl-2,4-dioxo-1,2,3,4-tetrahydropyrimidine-5-carboxamide] |
|  | 50 to 500 nM | ≤ 50 nM | O=C(Nc1ccc(Oc2ccnc3ccc4c(c23)OCCO4)c(F)c1)c1cccn(-c2ccc(F)cc2)c1=O [Example 169, N-(4-((2,3-dihydro-[1,4]dioxino[2,3-f]quinolin-10-yl)oxy)-3-fluorophenyl)-1-(4-fluorophenyl)-2-oxo-1,2-dihydropyridine-3-carboxamide] |
|  | 500 to 5000 nM | ≤ 50 nM | O=C(Nc1ccc(Oc2ccnc3ccc4c(c23)OCCO4)cc1F)c1cccn(-c2ccc(F)cc2)c1=O [Example 170, N-(4-((2,3-dihydro-[1,4]dioxino[2,3-f]quinolin-10-yl)oxy)-2-fluorophenyl)-1-(4-fluorophenyl)-2-oxo-1,2-dihydropyridine-3-carboxamide] |
|  | 500 to 5000 nM | ≤ 50 nM | CCOc1ccn(-c2ccc(F)cc2)c(=O)c1C(=O)Nc1ccc(Oc2ccnc3ccc4c(c23)OCCO4)cc1F [Example 171, N-(4-((2,3-dihydro-[1,4]dioxino[2,3-f]quinolin-10-yl)oxy)-2-fluorophenyl)-1-(4-fluorophenyl)-4-ethoxy-2-oxo-1,2-dihydropyridine-3-carboxamide] |
|  | > 5000 nM | ≤ 50 nM | COc1ccn(-c2ccc(F)cc2)c(=O)c1C(=O)Nc1ccc(Oc2ccnc3ccc4c(c23)OCCO4)cc1F [Example 172, N-(4-((2,3-dihydro-[1,4]dioxino[2,3-f]quinolin-10-yl)oxy)-2-fluorophenyl)-1-(4-fluorophenyl)-4-methoxy-2-oxo-1,2-dihydropyridine-3-carboxamide] |
|  | 500 to 5000 nM | ≤ 50 nM | COc1cc2nccc(Oc3cc(C)c(NC(=O)c4cn(C)c(=O)n(-c5ccc(F)cc5)c4=O)cc3F)c2c2c1OCCO2 [Example 177, N-(5-fluoro-4-((5-methoxy-2,3-dihydro-[1,4]dioxino[2,3-f]quinolin-10-yl)oxy)-2-methylphenyl)-3-(4-fluorophenyl)-1-methyl-2,4-dioxo-1,2,3,4-tetrahydropyrimidine-5-carboxamide] |
|  | 500 to 5000 nM | ≤ 50 nM | COCCOc1cc2nccc(Oc3cc(C)c(NC(=O)c4cn(C)c(=O)n(-c5ccc(F)cc5)c4=O)cc3F)c2c2c1OCCO2 [Example 179, N-(5-fluoro-4-((5-(2-methoxyethoxy)-2,3-dihydro-[1,4]dioxino[2,3-f]quinolin-10-yl)oxy)-2-methylphenyl)-3-(4-fluorophenyl)-1-methyl-2,4-dioxo-1,2,3,4-tetrahydropyrimidine-5-carboxamide] |
